According to US20180119171A1, “REPLICATIVE VACCINIA VIRUS VECTOR HIV VACCINE” (priority 2014, published 2018):

Tests used:
VTT [1] = assay type: cell-based, vaccinia virus Tiantan strain
TT-TK [2] = assay type: cell-based, recombinant vaccinia virus Tiantan strain
TT-EnvTK = assay type: cell-based, recombinant vaccinia virus Tiantan strain
VTT [3] = test system: VTT; set-up: species or system C57BL mice; settings: mouse, in vivo
TT-TK [4] = test system: TT-TK; set-up: species or system C57BL mice; settings: mouse, in vivo
vaccinia virus = settings: reference [10]; cited from earlier work

## Nc1nc(O)c2ncn(COC(CO)CO)c2n1 [GCV, ganciclovir]
VTT [1]
  inhibition effect on virus plaque number, VTT: no inhibition effects
TT-TK [2]
  inhibition effect on virus plaque number, TT-TK: clear inhibition effects
TT-EnvTK
  inhibition effect on virus plaque number, TT-EnvTK: clear inhibition effects
VTT [3]
  virus titre in mice ovaries, VTT inoculation, GCV injected: 1×10^6 PFU
TT-TK [4]
  virus titre in mice ovaries, TT-TK inoculation, GCV injected: No virus was detected
Vaccinia virus
  EC50: > 300 µM
